Data as given in patent publication US20170190671A1, “BIS(ARYL)CATECHOL DERIVATIVES AS HERBICIDES” (E I DU PONT DE NEMOURS AND COMPANY, priority 2014, published 2017).

Columns and labels:
Type in all cases: in vivo
[1] = test system: Italian ryegrass (Lolium multiflorum); assay: Test C preemergence; details: Lolium multiflorum, pre-emergence, 336 h, scale 0 to 100, read-out: Plant response rating, Ryegrass, Italian
In short: (§1)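 Steps: plant seeds in loam-sand soil and treat preemergence, or grow plants in peat-based medium to 2-18 cm and spray; compound formulated in non-phytotoxic solvent/surfactant; hold in greenhouse 13-15 days; score visually versus controls from 0 (no effect) to 100 (complete control).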

[2] = test system: blackgrass (Alopecurus myosuroides); assay: Test C preemergence; details: Alopecurus myosuroides, pre-emergence, 336 h, scale 0 to 100, read-out: Plant response rating, Blackgrass
In short: as §1

corn (Zea mays) = assay: Test C preemergence; details: Zea mays, pre-emergence, 336 h, scale 0 to 100
In short: as §1

[3] = test system: galium (catchweed bedstraw, Galium aparine); assay: Test C preemergence; details: Galium, pre-emergence, 336 h, scale 0 to 100, read-out: Plant response rating, Galium
In short: as §1

[4] = test system: giant foxtail (Setaria faberii); assay: Test C preemergence; details: Setaria faberi, pre-emergence, 336 h, scale 0 to 100, read-out: Plant response rating, Foxtail, Giant
In short: as §1

[5] = test system: johnsongrass (Sorghum halepense); assay: Test C preemergence; details: Sorghum halepense, pre-emergence, 336 h, scale 0 to 100, read-out: Plant response rating, Johnsongrass
In short: as §1

[6] = test system: large (Lg) crabgrass (Digitaria sanguinalis); assay: Test C preemergence; details: Digitaria sanguinalis, pre-emergence, 336 h, scale 0 to 100, read-out: Plant response rating, Crabgrass, Large
In short: as §1

[7] = test system: morningglory (Ipomoea coccinea); assay: Test C preemergence; details: Ipomoea, pre-emergence, 336 h, scale 0 to 100, read-out: Plant response rating, Morningglory
In short: as §1

[8] = test system: oilseed rape (Brassica napus); assay: Test C preemergence; details: Brassica napus, pre-emergence, scale 0 to 100, read-out: Plant response rating, Oilseed Rape
In short: as §1

[9] = test system: pigweed (Amaranthus retroflexus); assay: Test C preemergence; details: Amaranthus retroflexus, pre-emergence, 336 h, scale 0 to 100, read-out: Plant response rating, Pigweed
In short: as §1

[10] = test system: ragweed (common ragweed, Ambrosia elatior); assay: Test C preemergence; details: Ambrosia artemisiifolia, pre-emergence, 336 h, scale 0 to 100, read-out: Plant response rating, Ragweed
In short: as §1

soybean (Glycine max) = assay: Test C preemergence; details: Glycine max, pre-emergence, scale 0 to 100, read-out: Plant response rating, Soybean
In short: as §1

[11] = test system: velvetleaf (Abutilon theophrasti); assay: Test C preemergence; details: Abutilon theophrasti, pre-emergence, scale 0 to 100, read-out: Plant response rating, Velvetleaf
In short: as §1

[12] = test system: waterhemp (common waterhemp, Amaranthus rudis); assay: Test C preemergence; details: Amaranthus tuberculatus, pre-emergence, scale 0 to 100, read-out: Plant response rating, Waterhemp
In short: as §1

[13] = test system: winter wheat (Triticum aestivum); assay: Test C preemergence; details: Triticum aestivum, pre-emergence, 336 h, scale 0 to 100, read-out: Plant response rating, Wheat
In short: as §1

[14] = test system: yellow nutsedge (Cyperus esculentus); assay: Test C preemergence; details: Cyperus, pre-emergence, 336 h, scale 0 to 100, read-out: Plant response rating, Nutsedge, Yellow
In short: as §1

[15] = test system: blackgrass (Alopecurus myosuroides); assay: Test C postemergence; details: Alopecurus myosuroides, post-emergence, 336 h, Postemergence, scale 0 to 100, read-out: Plant response rating, Blackgrass
[16] = test system: chickweed (common chickweed, Stellaria media); assay: Test C postemergence; details: Stellaria media, post-emergence, Postemergence, scale 0 to 100, read-out: Plant response rating, Chickweed
[17] = test system: giant foxtail (Setaria faberii); assay: Test C postemergence; details: Setaria faberi, post-emergence, 336 h, Postemergence, scale 0 to 100, read-out: Plant response rating, Foxtail, Giant
[18] = test system: lambsquarters (Chenopodium album); assay: Test C postemergence; details: Chenopodium album, post-emergence, 336 h, Postemergence, scale 0 to 100, read-out: Plant response rating, Lambsquarters
[19] = test system: velvetleaf (Abutilon theophrasti); assay: Test C postemergence; details: Abutilon theophrasti, post-emergence, Postemergence, scale 0 to 100, read-out: Plant response rating, Velvetleaf
[20] = test system: yellow nutsedge (Cyperus esculentus); assay: Test C postemergence; details: Cyperus, post-emergence, 336 h, Postemergence, scale 0 to 100, read-out: Plant response rating, Nutsedge, Yellow

`N#Cc1cccc(Oc2ncc(Cl)cn2)c1Oc1ncc(C(F)(F)F)cn1` [Compound 38, 3-[(5-chloro-2-pyrimidinyl)oxy]-2-[[5-(trifluoromethyl)-2-pyrimidinyl]oxy]-benzonitrile] gave a pest or weed control at 31 g/ha ([1]; 31 g ai/ha, preemergence) of 10%, a pest or weed control at 62 g/ha ([1]; 62 g ai/ha, preemergence) of 60% and a pest or weed control at 125 g/ha ([1]; 125 g ai/ha, preemergence) of 90%. The pest or weed control at 16 g/ha ([1]; Preemergence, 16 g ai/ha) was 0%, the pest or weed control at 31 g/ha ([2]; 31 g ai/ha, preemergence) was 35% and the pest or weed control at 62 g/ha ([2]; 62 g ai/ha, preemergence) was 50%. The pest or weed control at 125 g/ha ([2]; 125 g ai/ha, preemergence) was 90%, the pest or weed control at 16 g/ha ([2]; Preemergence, 16 g ai/ha) was 0% and the Corn plant response rating (crop injury, 0 = no effect, 100 = complete kill) at 31 g/ha (corn (Zea mays); 31 g ai/ha, preemergence) was 30%. The Corn plant response rating (crop injury, 0 = no effect, 100 = complete kill) at 62 g/ha (corn (Zea mays); 62 g ai/ha, preemergence) was 45%, the Corn plant response rating (crop injury, 0 = no effect, 100 = complete kill) at 125 g/ha (corn (Zea mays); 125 g ai/ha, preemergence) was 65% and the Corn plant response rating (crop injury, 0 = no effect, 100 = complete kill) at 16 g/ha (corn (Zea mays); Preemergence, 16 g ai/ha) was 10%. The pest or weed control at 31 g/ha ([3]; 31 g ai/ha, preemergence) was 90%, the pest or weed control at 62 g/ha ([3]; 62 g ai/ha, preemergence) was 100% and the pest or weed control at 125 g/ha ([3]; 125 g ai/ha, preemergence) was 100%. For the same compound, the pest or weed control at 16 g/ha ([3]; Preemergence, 16 g ai/ha) was 80%, the pest or weed control at 31 g/ha ([4]; 31 g ai/ha, preemergence) was 95% and the pest or weed control at 62 g/ha ([4]; 62 g ai/ha, preemergence) was 100%. The pest or weed control at 125 g/ha ([4]; 125 g ai/ha, preemergence) was 100%, the pest or weed control at 16 g/ha ([4]; Preemergence, 16 g ai/ha) was 85% and the pest or weed control at 31 g/ha ([5]; 31 g ai/ha, preemergence) was 85%. For the same compound, the pest or weed control at 62 g/ha ([5]; 62 g ai/ha, preemergence) was 85%, the pest or weed control at 125 g/ha ([5]; 125 g ai/ha, preemergence) was 100% and the pest or weed control at 16 g/ha ([5]; Preemergence, 16 g ai/ha) was 45%. For the same compound, the pest or weed control at 31 g/ha ([6]; 31 g ai/ha, preemergence) was 100%, the pest or weed control at 62 g/ha ([6]; 62 g ai/ha, preemergence) was 100% and the pest or weed control at 125 g/ha ([6]; 125 g ai/ha, preemergence) was 100%. For the same compound, the pest or weed control at 16 g/ha ([6]; Preemergence, 16 g ai/ha) was 100%, the pest or weed control at 31 g/ha ([7]; 31 g ai/ha, preemergence) was 80% and the pest or weed control at 62 g/ha ([7]; 62 g ai/ha, preemergence) was 95%. For the same compound, the pest or weed control at 125 g/ha ([7]; 125 g ai/ha, preemergence) was 100%, the pest or weed control at 16 g/ha ([7]; Preemergence, 16 g ai/ha) was 40% and the plant injury at 31 g/ha ([8]; 31 g ai/ha, preemergence) was 100%. It also gave a plant injury at 62 g/ha ([8]; 62 g ai/ha, preemergence) of 100%, a plant injury at 125 g/ha ([8]; 125 g ai/ha, preemergence) of 100% and a plant injury at 16 g/ha ([8]; Preemergence, 16 g ai/ha) of 90%. For the same compound, the pest or weed control at 31 g/ha ([9]; 31 g ai/ha, preemergence) was 100%, the pest or weed control at 62 g/ha ([9]; 62 g ai/ha, preemergence) was 100% and the pest or weed control at 125 g/ha ([9]; 125 g ai/ha, preemergence) was 100%. For the same compound, the pest or weed control at 16 g/ha ([9]; Preemergence, 16 g ai/ha) was 100%, the pest or weed control at 31 g/ha ([10]; 31 g ai/ha, preemergence) was 25% and the pest or weed control at 62 g/ha ([10]; 62 g ai/ha, preemergence) was 75%. The pest or weed control at 125 g/ha ([10]; 125 g ai/ha, preemergence) was 90%, the pest or weed control at 16 g/ha ([10]; Preemergence, 16 g ai/ha) was 0% and the plant injury at 31 g/ha (soybean (Glycine max); 31 g ai/ha, preemergence) was 55%. The plant injury at 62 g/ha (soybean (Glycine max); 62 g ai/ha, preemergence) was 60%, the plant injury at 125 g/ha (soybean (Glycine max); 125 g ai/ha, preemergence) was 90% and the plant injury at 16 g/ha (soybean (Glycine max); Preemergence, 16 g ai/ha) was 20%. The pest or weed control at 31 g/ha ([11]; 31 g ai/ha, preemergence) was 90%, the pest or weed control at 62 g/ha ([11]; 62 g ai/ha, preemergence) was 98% and the pest or weed control at 125 g/ha ([11]; 125 g ai/ha, preemergence) was 100%. For the same compound, the pest or weed control at 16 g/ha ([11]; Preemergence, 16 g ai/ha) was 45%, the pest or weed control at 31 g/ha ([12]; 31 g ai/ha, preemergence) was 100% and the pest or weed control at 62 g/ha ([12]; 62 g ai/ha, preemergence) was 100%. For the same compound, the pest or weed control at 125 g/ha ([12]; 125 g ai/ha, preemergence) was 100%, the pest or weed control at 16 g/ha ([12]; Preemergence, 16 g ai/ha) was 100% and the plant injury at 31 g/ha ([13]; 31 g ai/ha, preemergence) was 0%. It also gave a plant injury at 62 g/ha ([13]; 62 g ai/ha, preemergence) of 15%, a plant injury at 125 g/ha ([13]; 125 g ai/ha, preemergence) of 35% and a plant injury at 16 g/ha ([13]; Preemergence, 16 g ai/ha) of 0%. For the same compound, the pest or weed control at 31 g/ha ([14]; 31 g ai/ha, preemergence) was 20%, the pest or weed control at 62 g/ha ([14]; 62 g ai/ha, preemergence) was 70% and the pest or weed control at 125 g/ha ([14]; 125 g ai/ha, preemergence) was 85%. For the same compound, the pest or weed control at 16 g/ha ([14]; Preemergence, 16 g ai/ha) was 0%, the pest or weed control at 16 g/ha ([15]; 16 g ai/ha) was 0% and the pest or weed control at 31 g/ha ([15]; 31 g ai/ha) was 0%. For the same compound, the pest or weed control at 62 g/ha ([15]; 62 g ai/ha) was 10%, the pest or weed control at 125 g/ha ([15]; 125 g ai/ha) was 15% and the pest or weed control at 16 g/ha ([16]; 16 g ai/ha) was 50%. The pest or weed control at 31 g/ha ([16]; 31 g ai/ha) was 50%, the pest or weed control at 62 g/ha ([16]; 62 g ai/ha) was 70% and the pest or weed control at 125 g/ha ([16]; 125 g ai/ha) was 85%. The pest or weed control at 16 g/ha ([17]; 16 g ai/ha) was 5%, the pest or weed control at 31 g/ha ([17]; 31 g ai/ha) was 10% and the pest or weed control at 62 g/ha ([17]; 62 g ai/ha) was 10%. For the same compound, the pest or weed control at 125 g/ha ([17]; 125 g ai/ha) was 25%, the pest or weed control at 16 g/ha ([18]; 16 g ai/ha) was 65% and the pest or weed control at 31 g/ha ([18]; 31 g ai/ha) was 70%. The pest or weed control at 62 g/ha ([18]; 62 g ai/ha) was 80%, the pest or weed control at 125 g/ha ([18]; 125 g ai/ha) was 90% and the pest or weed control at 31 g/ha ([19]; 31 g ai/ha) was 65%. It also gave a pest or weed control at 62 g/ha ([19]; 62 g ai/ha) of 55%, a pest or weed control at 125 g/ha ([19]; 125 g ai/ha) of 60% and a pest or weed control at 31 g/ha ([20]; 31 g ai/ha) of 0%. The pest or weed control at 62 g/ha ([20]; 62 g ai/ha) was 5% and the pest or weed control at 125 g/ha ([20]; 125 g ai/ha) was 10%.
